Data published in the supplement of paper PMC10307832.

What was measured:
Assay in all cases: relative viability (nuclei count vs DMSO), 5 days (fraction); higher = more cells survive
[1] = compound: O=C(C[C@H]1NCCC[C@@H]1O)Cn1cnc2cc(Br)c(Cl)cc2c1=O (racemic) [Halofuginone] + CC(=O)Nc1cccc(-n2c(=O)n(C3CC3)c(=O)c3c(Nc4ccc(I)cc4F)n(C)c(=O)c(C)c32)c1 [Trametinib] (partner 0.02 µM)
Summary of the method: (§1)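 A single step with final 0.05% Triton X-100, 1% formaldehyde and 1 ug/ml Hoechst fixed the cells and stained nuclei 5 days after treatment. Lung cancer cell lines in 1536-well plates had been treated by pin tool the day after seeding with one drug alone or a fixed anchor-drug dose plus five library-drug doses (not always all listed) in √10 steps, and nuclei were counted on 4× images. Relative viability is the ratio of nuclei in treated wells to nuclei in vehicle wells, taken as the median of duplicate plates.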

Cediranib + OSI-027 = compound: COc1cc2c(Oc3ccc4[nH]c(C)cc4c3F)ncnc2cc1OCCCN1CCCC1 [Cediranib] + COc1cccc2cc(-c3nc([C@H]4CC[C@H](C(=O)O)CC4)n4ncnc(N)c34)[nH]c12 [OSI-027] (partner 0.5 µM)
Summary of the method: as §1

Halofuginone + Dasatinib = compound: O=C(C[C@H]1NCCC[C@@H]1O)Cn1cnc2cc(Br)c(Cl)cc2c1=O (racemic) [Halofuginone] + Cc1nc(Nc2ncc(C(=O)Nc3c(C)cccc3Cl)s2)cc(N2CCN(CCO)CC2)n1 [Dasatinib] (partner 0.075 µM)
Summary of the method: as §1

Halofuginone + AZD7762 = compound: O=C(C[C@H]1NCCC[C@@H]1O)Cn1cnc2cc(Br)c(Cl)cc2c1=O (racemic) [Halofuginone] + NC(=O)Nc1cc(-c2cccc(F)c2)sc1C(=O)N[C@H]1CCCNC1 [AZD7762] (partner 0.2 µM)
Summary of the method: as §1

Cell Line | relative viability ([1]; first compound 0.001 µM) | relative viability ([1]; first compound 0.003162 µM) | relative viability ([1]; first compound 0.01 µM) | relative viability ([1]; first compound 0.03162 µM) | relative viability ([1]; first compound 0.1 µM) | relative viability (Cediranib + OSI-027; first compound 0.04 µM) | relative viability (Cediranib + OSI-027; first compound 0.4 µM) | relative viability (Cediranib + OSI-027; first compound 1.265 µM) | relative viability (Cediranib + OSI-027; first compound 4 µM) | relative viability (Halofuginone + Dasatinib; first compound 0.001 µM) | relative viability (Halofuginone + Dasatinib; first compound 0.003162 µM) | relative viability (Halofuginone + Dasatinib; first compound 0.01 µM) | relative viability (Halofuginone + Dasatinib; first compound 0.03162 µM) | relative viability (Halofuginone + Dasatinib; first compound 0.1 µM) | relative viability (Halofuginone + AZD7762; first compound 0.001 µM) | relative viability (Halofuginone + AZD7762; first compound 0.003162 µM) | relative viability (Halofuginone + AZD7762; first compound 0.01 µM) | relative viability (Halofuginone + AZD7762; first compound 0.03162 µM) | relative viability (Halofuginone + AZD7762; first compound 0.1 µM) | relative viability (Cediranib + OSI-027; first compound 0.1265 µM)
HCC-827 | 0.591 | 0.524 | 0.515 | 0.575 | 0.433 | 0.751 | 0.737 | 0.74 | 0.671 | 0.249 | 0.415 | 0.31 | 0.493 | 0.359 | 0.242 | 0.183 | 0.217 | 0.2 | 0.253 | 
HOP-62 | 0.419 | 0.407 | 0.383 | 0.411 | 0.235 | 0.78 | 0.771 | 0.677 | 0.791 | 0.641 | 0.75 | 0.737 | 0.545 | 0.369 | 0.573 | 0.676 | 0.47 | 0.599 | 0.327 | 0.813
LC-2-ad | 0.897 | 0.988 | 0.936 | 0.917 | 0.701 | 0.874 | 0.821 | 0.762 | 0.835 | 0.711 | 0.517 | 0.511 | 0.565 | 0.209 | 0.841 | 0.878 | 0.831 | 0.885 | 0.576 | 0.731
LCLC-97TM1 | 0.241 | 0.192 | 0.187 | 0.185 | 0.173 | 0.605 | 0.518 | 0.508 | 0.566 | 0.78 | 0.902 | 0.775 | 0.826 | 0.775 | 0.33 | 0.18 | 0.211 | 0.22 | 0.237 | 0.332
LCLC-103H | 0.659 | 0.682 | 0.666 | 0.661 | 0.658 | 0.469 | 0.474 | 0.467 | 0.504 | 0.551 | 0.423 | 0.472 | 0.48 | 0.388 | 0.808 | 0.851 | 0.784 | 0.793 | 0.695 | 0.501
LK-2 | 0.853 | 0.775 | 0.592 | 0.823 | 0.519 | 0.181 | 0.22 | 0.175 | 0.201 | 0.318 | 0.329 | 0.328 | 0.251 | 0.26 | 0.583 | 0.432 | 0.487 | 0.491 | 0.281 | 0.192
LOU-NH91 | 0.819 | 0.817 | 0.724 | 0.778 | 0.697 | 0.769 | 0.707 | 0.582 | 0.701 | 0.632 | 0.578 | 0.555 | 0.582 | 0.498 | 0.793 | 0.735 | 0.767 | 0.691 | 0.664 | 0.862
NCI-H520 | 0.572 | 0.734 | 0.695 | 0.45 | 0.287 | 0.403 | 0.211 | 0.202 | 0.226 | 0.215 | 0.173 | 0.175 | 0.16 | 0.17 |  |  |  |  |  | 0.239
